# Reference: US20130136772A1, “REGULATION OF IMMUNE RESPONSE BY COLOCYNTHIN AND/OR ITS DERIVATIVES” (priority 2010, published 2013)
# Where “and” joins values, the source holds several entries; their conditions need not be identical. Equal values may be shown once.
# How the values were obtained:
# [1] = tested on: Interleukin-1beta (IL-1β); test: Extracellular IL-1β in LPS stimulated murine neutrophils (ELISA, in vitro); type: cell-based; settings: for Concentration of IL-1β produced Mean ± S.E.: LPS 10 ng/ml, 4 hr
# Experimental: Neutrophils were separated from whole blood by Histopaque gradient method (Histopaque-No. 1077). Cell count was adjusted to approximately 10^5/[…]. Lipopolysaccharide, at the concentration of 10 ng/ml was used as stimulus in in-vitro studies. […] Extracellular IL-1β was estimated through ELISA (Table 2) [Weir, R. E., Morgan, A. R., Britton, W. J., Butlin, C. R., Dockrell, H. M., 1994. Development of a whole blood assay to measure T cell responses to leprosy: a new tool for immuno-epidemiological fields studies of leprosy immunity. J. Immunol. Methods. 176, 93; Hussain, R., Kaleem, A., Shahid, F., Dojki, M., Jamil, B., Mehmood, H., Dawood, G., Dockrell, H., 2002. Cytokine profiles using whole blood assays can discriminate between tuberculosis patients and healthy endemic controls in a BCG-vaccinated population. J. Immunol. Methods. 264, 95-108]
# [2] = tested on: macrophage phagocytic response; test: Clearance rate of carbon particles from the circulation (phagocytic index, in vivo); design: species or system mice
# Experimental: K., Sharma, M. L., Kaul, A and Khajuria, A. (1986) Immunomodulating agents of plant origin. 1. Preliminary screening. Journal of Ethnopharmacology. 18, 133-141.] Blood samples were collected before and at intervals varying between 2 and 90 min after carbon injection. An aliquot (10 μL) of blood samples were lysed with 2mL of 0.1% acetic acid and the transparency determined spectrophotometrically at 675 nm (Uvikon 810, spectrophotometer, Kontron Ltd., Switzerland) (Hudson and Hay, 1980). AD-B-63B was administered orally for 7 days and 30 min prior to the carbon injection. The rate of carbon clearance termed as phagocytic index was calculated (Table 4).
# [3] = tested on: skin allograft rejection; test: Skin allograft rejection time; type: in vivo, mice
# Experimental: The modified method of Billingham and Medawar (1951) [[…]] was followed to study the skin allograft rejection time in mice. Graded doses of test material AD-B-63B were administered to the animals for 7 days and graft rejection time (GRT) was recorded by daily observation of epithelial skin layer survival. […] The basic mechanism involved in increase in graft rejection time is the suppression of T lymphocytes. After transplantation, MHC peptide complexes of the foreign organ are recognized by CD4+ and CD8+ T cells of the recipient as non-self antigens. These T cells differentiate into effector T cells and stimulate an immune response. After T cells differentiate and migrate to the site, macrophages and other inflammatory agents are mediated to the site. Cytotoxic T cells (CD8+) lyse the endothelial cells on the graft, CD4+ Th1 activate macrophages and CD4+ Th2 aid in antibody production.
# [4] = tested on: humoral antibody response; test: SRBC induced haemagglutination antibody titre (humoral immune response); type: in vivo, mice; settings: for ANTIBODY TITRE MEAN ± S.E: blood on day 7
# Experimental: 200 μl of 5×10^9 SRBC/ml was used to immunize the animals on day 0. Animals were treated with graded doses of AD-B-63B i.e., 1, 2.5, 5 and 10mg/kg p.o. for next six consecutive days. Blood samples were collected on day 7 for antibody titre assay. Haemagglutination antibody titre was determined following the microtitration technique described by Nelson and Midenhall, 1967. The value of highest serum dilution causing visible Haemagglutination was taken as titre. BSA saline alone served as control (Table 7).
# [5] = tested on: CD4+ T cells; test: Lymphocyte immunophenotyping, CD4+ T cell population in SRBC immunised mice; type: in vivo, Swiss albino mice; settings: graded doses; most significant suppression at 5 and 10 mg/kg vs sensitized control
# Text: Immunophenotyping focuses on lymphocyte populations involved in acquired immunity. Specific molecules present on the cell surface defines characteristics of lymphocytes such as state of activation or functional capabilities. Murine monoclonal antibodies conjugated to a fluorochrome and directed against co-receptors CD4 and CD8 were used in a multi parametric flowcytometric assay to quantify the lymphocyte subsets associated with the cell-mediated immune response.
# Estimation of T cell surface markers: On day 0, mice were immunized by injecting 200 μl of 5×10^9 SRBC/ml intraperitonially. Drug administration was carried out for 6 days including the day of immunization. Same amount of SRBC was used to challenge the animals on day 7. After 24 h of challenge, blood was taken from retro-orbital plexus of animals for estimation of CD4^+ and CD8^+ T cells. 100 μl of whole blood was taken in each tube and FITC (fluorescein isothiocyanate) labelled CD4+ and PE (phycoerythrin) labelled CD8+ monoclonal antibodies were added and mixed gently. Tubes were incubated in the dark for 30 min. at room temperature. Subsequently, 2 ml of 1× FACS lysing solution was added at room temperature with gentle mixing. Samples were again incubated at room temperature for 10 min. […]
compound,measurement,setting,value
"CC(=O)OC(C)(C)/C=C/C(=O)[C@](C)(O)[C@H]1[C@H](O)C[C@@]2(C)[C@@H]3CC=C4[C@@H](C=C(O[C@@H]5O[C@H](CO)[C@@H](O)[C@H](O)[C@H]5O)C(=O)C4(C)C)[C@]3(C)C(=O)C[C@]12C [AD-B-63B, 2-O-β-D-glucopyranosyl cucurbitacin E]",% activity IL-1β expression against LPS control (decrease),[1]; 0.5 μg/ml,10.25↓ %
same,Concentration of IL-1β produced Mean ± S.E.,[1]; 0.5 μg/ml,120.91 ± 2.61 pg/mL
same,% activity IL-1β expression against LPS control (decrease),[1]; 1 μg/ml,18.66↓ %
same,Concentration of IL-1β produced Mean ± S.E.,[1]; 1 μg/ml,109.58 ± 3.21 pg/mL
same,% activity IL-1β expression against LPS control (decrease),[1]; 5.0 μg/ml,30.90% and 30.90↓ %
same,Concentration of IL-1β produced Mean ± S.E.,[1]; 5.0 μg/ml,93.08 ± 2.61 pg/mL
same,% activity IL-1β expression against LPS control (decrease),[1]; 10.0 μg/ml,34.96% and 34.96↓ %
same,Concentration of IL-1β produced Mean ± S.E.,[1]; 10.0 μg/ml,87.61 ± 1.99 pg/mL
same,Concentration of IL-1β produced Mean ± S.E.,[1]; […],106.66 ± 2.44 pg/mL
same,percent decrease in phagocytic index,[2]; 1 mg/kg,(14.28%↓)
same,Phagocytic index [in vivo study] Mean ± S.E.,[2]; 1 mg/kg orally for 7 days,1.08 ± 0.09
same,percent decrease in phagocytic index,[2]; 5 mg/kg,(26.98%↓)
same,Phagocytic index [in vivo study] Mean ± S.E.,[2]; 5 mg/kg orally for 7 days,0.92 ± 0.04
same,percent decrease in phagocytic index,[2]; 10 mg/kg,(26.19%↓)
same,Phagocytic index [in vivo study] Mean ± S.E.,[2]; 10 mg/kg orally for 7 days,0.93 ± 0.07
same,decrease in phagocytic index,"[2]; dose range of 1-10 mg/kg, oral for 7 days",14.28-26.19%
same,"GRAFT REJECTION (Percent), delayed",[3]; 1 mg/kg p.o.,16.30% and 16.30↓ %
same,REJECTION TIME Mean ± S.E.,[3]; 1 mg/kg p.o. for 7 days,15.12 ± 0.11 days
same,"GRAFT REJECTION (Percent), delayed",[3]; 5 mg/kg p.o.,29.23% and 29.23↓ %
same,REJECTION TIME Mean ± S.E.,[3]; 5 mg/kg p.o. for 7 days,16.80 ± 0.22 days
same,"GRAFT REJECTION (Percent), delayed",[3]; 10 mg/kg p.o.,31.84% and 31.84↓ %
same,REJECTION TIME Mean ± S.E.,[3]; 10 mg/kg p.o. for 7 days,17.14 ± 0.23 days
same,% ACTIVITY (decrease in antibody titre),[4]; 1 mg/kg p.o.,13.47↓ %
same,ANTIBODY TITRE MEAN ± S.E,[4]; 1 mg/kg p.o. for six days,5.33 ± 0.45
same,% ACTIVITY (decrease in antibody titre),[4]; 5 mg/kg p.o.,33.11↓ %
same,ANTIBODY TITRE MEAN ± S.E,[4]; 5 mg/kg p.o. for six days,4.12 ± 0.33
same,% ACTIVITY (decrease in antibody titre),[4]; 10 mg/kg p.o.,35.06↓ %
same,ANTIBODY TITRE MEAN ± S.E,[4]; 10 mg/kg p.o. for six days,4.00 ± 0.31
same,antibody synthesis (haemagglutination antibody titre),"[4]; significant decrease at 2.5, 5 and 10 mg/kg p.o.",inhibition of antibody synthesis
same,percentage of CD4+ T-cell population,[5],decrease
